Like-named read-outs stand apart in the source and are kept apart here.
Columns and labels:
[1] = molecular target: ColH; conditions: literature inhibitor; cited from earlier work
[2] = in vitro; conditions: human, HepG2 cells (hepatocellular carcinoma)
[3] = in vitro; conditions: human, HEK293 cells (embryonal kidney)
[4] = in vitro; conditions: human, A549 cells (lung carcinoma)
[5] = molecular target: T1, LasB (Pseudomonas aeruginosa, UniProt Q02RJ6); test: biochemical; conditions: LasB IC50, FRET-based assay
[6] = molecular target: peptidase domain of ColH (ColH-PD) (Hathewaya histolytica, UniProt Q46085); test: biochemical; parameters: species or system Clostridium histolyticum; conditions: for inhibition at 1 µM: read-out: ColH-PD % inhibition @ 1 μM
[7] = molecular target: T1, LasB
[8] = tested on: P. aeruginosa strain PA14; test: Bacterial growth inhibition assay (MIC) P. aeruginosa; assay type: cell-based, Pseudomonas aeruginosa
[9] = molecular target: peptidase domain of ColT (ColT-PD) (Clostridium tetani, UniProt Q899Y1); test: biochemical; parameters: species or system C. tetani; conditions: read-out: ColT-PD % inhibition @ 100 μM
[10] = molecular target: T2, collagenase unit of ColQ1 (ColQ1-CU) (Bacillus cereus, UniProt B9J3S4); test: biochemical; parameters: species or system B. cereus strain Q1; conditions: read-out: ColQ1-CU % inhibition @ 100 μM
T2 construct: the collagenase unit of ColQ1 (ColQ1-CU) from B. cereus strain Q1

[11] = molecular target: collagenase unit of ColG (ColG-CU) (Hathewaya histolytica, UniProt Q9X721); test: biochemical; parameters: species or system C. histolyticum; conditions: read-out: ColG-CU % inhibition @ 100 μM
collagenase unit of ColG (ColG-CU), sequence (Q9X721 111-786): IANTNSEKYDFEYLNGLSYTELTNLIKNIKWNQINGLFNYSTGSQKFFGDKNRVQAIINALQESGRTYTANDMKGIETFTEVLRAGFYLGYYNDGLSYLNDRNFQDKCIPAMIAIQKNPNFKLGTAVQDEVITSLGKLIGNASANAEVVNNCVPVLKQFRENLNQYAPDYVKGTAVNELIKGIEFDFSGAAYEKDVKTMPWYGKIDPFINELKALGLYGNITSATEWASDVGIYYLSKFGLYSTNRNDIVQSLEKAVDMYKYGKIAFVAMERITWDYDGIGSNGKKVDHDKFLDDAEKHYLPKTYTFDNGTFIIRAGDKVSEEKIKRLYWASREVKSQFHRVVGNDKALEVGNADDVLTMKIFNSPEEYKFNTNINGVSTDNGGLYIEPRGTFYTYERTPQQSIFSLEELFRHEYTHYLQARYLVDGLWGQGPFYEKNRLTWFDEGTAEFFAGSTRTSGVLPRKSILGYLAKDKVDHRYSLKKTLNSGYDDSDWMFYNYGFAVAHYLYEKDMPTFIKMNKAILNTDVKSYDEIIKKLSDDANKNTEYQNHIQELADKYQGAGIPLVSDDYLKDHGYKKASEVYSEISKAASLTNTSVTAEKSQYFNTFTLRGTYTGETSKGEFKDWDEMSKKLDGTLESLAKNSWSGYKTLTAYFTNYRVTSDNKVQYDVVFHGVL

T1 sequence (Q02RJ6 198-498): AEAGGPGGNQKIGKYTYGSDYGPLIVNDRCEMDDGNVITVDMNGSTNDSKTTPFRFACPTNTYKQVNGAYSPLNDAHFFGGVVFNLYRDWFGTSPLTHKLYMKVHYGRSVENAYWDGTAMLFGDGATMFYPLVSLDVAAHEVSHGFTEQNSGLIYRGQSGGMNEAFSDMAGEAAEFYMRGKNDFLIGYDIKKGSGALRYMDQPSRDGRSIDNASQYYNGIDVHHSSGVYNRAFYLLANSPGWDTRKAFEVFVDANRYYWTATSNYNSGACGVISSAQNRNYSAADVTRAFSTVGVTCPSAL
peptidase domain of ColH (ColH-PD), sequence (Q46085 331-721 limits assumed): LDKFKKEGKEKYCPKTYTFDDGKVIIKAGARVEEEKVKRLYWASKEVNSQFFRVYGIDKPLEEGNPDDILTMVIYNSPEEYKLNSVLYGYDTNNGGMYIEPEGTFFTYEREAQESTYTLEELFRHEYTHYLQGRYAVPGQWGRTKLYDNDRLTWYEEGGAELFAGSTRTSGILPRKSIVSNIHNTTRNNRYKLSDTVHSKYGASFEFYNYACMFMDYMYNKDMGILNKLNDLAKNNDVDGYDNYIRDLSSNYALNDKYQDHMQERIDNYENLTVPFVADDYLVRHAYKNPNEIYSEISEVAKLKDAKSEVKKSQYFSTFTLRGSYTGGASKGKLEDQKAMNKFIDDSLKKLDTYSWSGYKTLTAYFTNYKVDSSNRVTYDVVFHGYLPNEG
T2 sequence (B9J3S4 94-765 limits assumed): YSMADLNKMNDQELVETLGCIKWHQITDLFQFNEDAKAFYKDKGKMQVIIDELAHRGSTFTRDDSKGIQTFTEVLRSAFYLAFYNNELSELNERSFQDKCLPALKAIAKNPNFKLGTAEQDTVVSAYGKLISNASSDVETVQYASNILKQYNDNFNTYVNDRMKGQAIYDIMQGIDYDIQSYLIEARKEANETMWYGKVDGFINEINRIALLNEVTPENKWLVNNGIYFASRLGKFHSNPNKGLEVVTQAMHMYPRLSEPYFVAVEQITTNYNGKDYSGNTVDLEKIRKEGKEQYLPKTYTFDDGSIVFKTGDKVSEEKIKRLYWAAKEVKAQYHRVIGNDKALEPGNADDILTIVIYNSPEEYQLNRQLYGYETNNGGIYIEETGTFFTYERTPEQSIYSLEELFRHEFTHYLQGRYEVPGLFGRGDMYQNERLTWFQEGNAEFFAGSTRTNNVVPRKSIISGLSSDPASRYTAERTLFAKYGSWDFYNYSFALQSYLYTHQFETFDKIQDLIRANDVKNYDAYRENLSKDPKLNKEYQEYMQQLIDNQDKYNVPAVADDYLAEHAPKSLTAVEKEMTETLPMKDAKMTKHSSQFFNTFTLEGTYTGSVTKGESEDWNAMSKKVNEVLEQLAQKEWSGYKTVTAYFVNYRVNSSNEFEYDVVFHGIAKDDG
peptidase domain of ColT (ColT-PD), sequence (Q899Y1 340-731 limits assumed): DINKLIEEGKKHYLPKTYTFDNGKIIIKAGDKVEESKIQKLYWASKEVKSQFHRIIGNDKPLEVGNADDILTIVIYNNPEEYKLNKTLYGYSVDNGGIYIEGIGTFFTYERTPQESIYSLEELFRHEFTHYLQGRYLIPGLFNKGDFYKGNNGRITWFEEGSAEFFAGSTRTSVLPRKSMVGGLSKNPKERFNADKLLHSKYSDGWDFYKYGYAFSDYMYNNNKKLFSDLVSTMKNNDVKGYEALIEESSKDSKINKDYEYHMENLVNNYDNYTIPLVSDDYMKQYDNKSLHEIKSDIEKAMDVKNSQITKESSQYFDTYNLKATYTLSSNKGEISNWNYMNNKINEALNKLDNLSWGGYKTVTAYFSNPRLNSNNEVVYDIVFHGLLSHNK

Row | SMILES | IC50 [5] | inhibition at 1 µM [6] | further results
1 | CC(C(=O)NO)N(Cc1ccccc1[N+](=O)[O-])S(=O)(=O)c1c(F)c(F)c(F)c(F)c1F (centres unmarked) [Compound 3] | – | – | Ki [1]: 0.005 µM
2 | CC(NC(=O)C(Cc1ccccc1)NC(=O)NS(=O)(=O)c1ccc(F)cc1)C(=O)Nc1nnc(S)s1 (centres unmarked) [Compound 4] | – | – | Ki [1]: 0.2 µM
3 | CC(=O)c1ccc(NC(=O)CS)cc1 [Compound 6, reference compound] | – | – | IC50 [2]: > 100 µM; IC50 [3]: 100 µM; IC50 [4]: > 100 µM
4 | O=C1CC(S)C(=O)N1c1ccccc1 (centres unmarked) [Compound 7] | 44.2 ± 2.3 µM | 8 ± 2% | –
5 | Cc1ccc(N2C(=O)CC(S)C2=O)cc1 (centres unmarked) [Compound 8] | 50.6 ± 1.6 µM | 34% | –
6 | Cc1ccc(N2C(=O)CC(S)C2=O)cc1C (centres unmarked) [Compound 9] | 29.4 ± 0.9 µM | 7 ± 2% | difference in LasB activity between 9 and 22 ([7]; ratio of IC50 values, 9 more active): 5 fold
7 | O=C1CC(S)C(=O)N1c1ccccc1Cl (centres unmarked) [Compound 10] | 8.5 ± 0.4 µM | 8 ± 1% | –
8 | O=C1CC(S)C(=O)N1c1cccc(Cl)c1 (centres unmarked) [Compound 11] | 8.1 ± 0.5 µM | 0% | –
9 | O=C1CC(S)C(=O)N1c1ccc(Cl)cc1 (centres unmarked) [Compound 12] | 16.5 ± 0.8 µM | 33% | –
10 | O=C1CC(S)C(=O)N1c1c(Cl)cccc1Cl (centres unmarked) [Compound 14] | 16 ± 3.7 µM | 8 ± 3% | –
11 | O=C1CC(S)C(=O)N1c1ccc(F)c(F)c1 (centres unmarked) [Compound 15] | 3.5 ± 0.2 µM | 2 ± 2% | MIC [8]: >100 µM; MIC ([8]; Pseudomonas aeruginosa): > 100 µM
12 | Cc1ccc(Cl)cc1N1C(=O)CC(S)C1=O (centres unmarked) [Compound 16] | 15 ± 0.6 µM | 6 ± 1% | –
13 | Cc1ccc(Cl)c(C)c1N1C(=O)CC(S)C1=O (centres unmarked) [Compound 17] | 30.5 ± 5.4 µM | 6 ± 5% | –
14 | COc1ccccc1N1C(=O)CC(S)C1=O (centres unmarked) [Compound 18] | 28.9 ± 1.6 µM | 0% | –
15 | COc1cccc(N2C(=O)CC(S)C2=O)c1 (centres unmarked) [Compound 19] | 40.2 ± 1.4 µM | -3 ± 9% | –
16 | COc1ccc(N2C(=O)CC(S)C2=O)cc1 (centres unmarked) [Compound 20] | 112 ± 8.9 µM | 74% | inhibition at 100 µM [9]: 89 ± 4%; inhibition at 100 µM [10]: 99 ± 1%; inhibition at 100 µM [11]: 85 ± 3%; IC50 [6]: 0.32 ± 0.05 µM; inhibition at 100 µM ([6]; read-out: ColH-PD % inhibition @ 100 μM): 95 ± 1%

Row | SMILES | IC50 [5] | inhibition at 1 µM [6] | further results
17 | COc1ccc(N2C(=O)CC(S)C2=O)c(OC)c1 (centres unmarked) [Compound 21] | 45 ± 0.8 µM | 2 ± 13% | –
18 | COc1ccc(N2C(=O)CC(S)C2=O)cc1OC (centres unmarked) [Compound 22] | 160 ± 10.1 µM | 3 ± 11% | loss in LasB activity compared to 13 ([7]; ratio of IC50 values): 47 fold
19 | O=C1CC(S)C(=O)N1c1ccc(OC(F)(F)F)c(Cl)c1 (centres unmarked) [Compound 23] | 55.2 ± 4.4 µM | 18 ± 12% | –
20 | O=C1CC(S)C(=O)N1c1cccc([N+](=O)[O-])c1 (centres unmarked) [Compound 24] | 22.2 ± 0.4 µM | 4 ± 4% | –
21 | O=C1CC(S)C(=O)N1c1cccc(-c2ccccc2)c1 (centres unmarked) [Compound 26] | 27.6 ± 4 µM | 7 ± 4% | fold more active on LasB than compound 7 [7]: 1.6 fold
22 | O=C1CC(S)C(=O)N1c1ccc(-c2ccccc2)cc1 (centres unmarked) [Compound 27] | 44.6 ± 1.1 µM | 5 ± 2% | –
23 | COc1ccc(N2C(=O)CC(SC(C)=O)C2=O)cc1 (centres unmarked) [Compound 28] | > 200 µM | 24 ± 2% | –
24 | CC(=O)SC1CC(=O)N(c2ccc(Cl)c(Cl)c2)C1=O (centres unmarked) [Compound 29] | > 200 µM | -1 ± 7% | –
25 | CC(=O)SC1CC(=O)N(c2ccc(OC(F)(F)F)c(Cl)c2)C1=O (centres unmarked) [Compound 30] | > 200 µM | -11 ± 2% | –
26 | CC(=O)SCC1CC(=O)N(c2ccccc2)C1=O (centres unmarked) [Compound 40] | > 200 µM | -15 ± 5% | –
27 | CC(=O)SCC1CC(=O)N(c2ccc(Cl)c(Cl)c2)C1=O (centres unmarked) [Compound 41] | > 200 µM | -1 ± 2% | –
28 | CC(=O)SCC1CC(=O)N(c2ccc(C(C)=O)cc2)C1=O (centres unmarked) [Compound 42] | > 200 µM | 2 ± 5% | –
29 | COc1ccc(N2C(=O)CC(CSC(C)=O)C2=O)cc1 (centres unmarked) [Compound 43] | > 200 µM | 4 ± 6% | –
30 | O=C1CC(CS)C(=O)N1c1ccc(Cl)c(Cl)c1 (centres unmarked) [Compound 50] | 5.4 ± 0.7 µM | 2 ± 3% | MIC [8]: >100 µM; MIC ([8]; Pseudomonas aeruginosa): > 100 µM
31 | O=C1CC(CS)C(=O)N1c1ccc(F)c(F)c1 (centres unmarked) [Compound 51] | 10.1 ± 1.4 µM | 2 ± 1% | MIC [8]: >100 µM; MIC ([8]; Pseudomonas aeruginosa): > 100 µM
32 | CC(=O)c1ccc(N2C(=O)CC(CS)C2=O)cc1 (centres unmarked) [Compound 52] | > 200 µM | 8 ± 3% | –

Reference: paper PMC7429951 (Journal of Medicinal Chemistry, 2020)
